From ChEMBL document CHEMBL3232823, “Non-imidazole histamine H3 receptor ligands incorporating antiepileptic moieties” (Eur J Med Chem, 2014)
pKi: −log10 of the molar value. The source made the active and inactive calls. No cut-off for these calls is given here.

Legend:
[1] = target: Histamine H4 receptor (Homo sapiens, UniProt Q9H3N8); experiment: Displacement of [3H]histamine from human H4 receptor expressed in Sf9 cell membrane co-transfected with Galphai2 and Gbeta1gamma2 after 60 mins by liquid scintillation counting analysis
[2] = target: Histamine H3 receptor (Homo sapiens, UniProt Q9Y5N1); experiment: Displacement of [3H]N-alpha-methylhistamine from human H3 receptor expressed in HEK-293 cell membrane after 90 mins by liquid scintillation counting analysis; format: cell membranes, HEK293
[3] = tested on: Rattus norvegicus; experiment: Anticonvulsant activity in Wistar rat assessed as protection against maximal electroshock-induced convulsions at 1 to 10 mg/kg, ip administered 30 mins before MES challenge; format: functional, organism-based
[4] = target: Histamine H1 receptor (Homo sapiens, UniProt P35367); experiment: Displacement of [3H]pyrilamine from human H1 receptor expressed in CHO cell membrane after 120 mins by liquid scintillation counting analysis; format: cell membranes
[5] = tested on: Rattus norvegicus; experiment: Anticonvulsant activity against PTZ-kindled convulsion Wistar rat model assessed as reduction in convulsions at 1 mg/kg, ip administered 30 mins before PTZ challenge measured for 10 to 30 mins; format: functional, organism-based; set-up: dose 1 mg/kg
[6] = tested on: Rattus norvegicus; experiment: Anticonvulsant activity against PTZ-kindled convulsion Wistar rat model assessed as reduction in convulsions at 10 mg/kg, ip administered 30 mins before PTZ challenge measured for 10 to 30 mins; format: functional, organism-based; set-up: dose 10 mg/kg
[7] = tested on: Rattus norvegicus; experiment: Anticonvulsant activity in Wistar rat assessed as protection against maximal electroshock-induced convulsions at 1 mg/kg, ip administered 30 mins before MES challenge; format: functional, organism-based; set-up: dose 1 mg/kg
[8] = tested on: Rattus norvegicus; experiment: Anticonvulsant activity against PTZ-kindled convulsion Wistar rat model assessed as decrease in total convulsion time at 10 mg/kg, ip administered 30 mins before PTZ challenge; format: functional, organism-based; set-up: dose 10 mg/kg
[9] = tested on: Rattus norvegicus; experiment: Anticonvulsant activity against PTZ-kindled convulsion Wistar rat model assessed as increase in latency time to clonic-tonic convulsions at 10 mg/kg, ip administered 30 mins before PTZ challenge; format: functional, organism-based; set-up: dose 10 mg/kg
[10] = tested on: Rattus norvegicus; experiment: Anticonvulsant activity against PTZ-kindled convulsion Wistar rat model assessed as latency for the first atypical behaviours at 10 mg/kg, ip administered 30 mins before PTZ challenge; format: functional, organism-based; set-up: dose 10 mg/kg
[11] = tested on: Rattus norvegicus; experiment: Anticonvulsant activity against PTZ-kindled convulsion Wistar rat model assessed as prolongation of latency time to myoclonic convulsions at 10 mg/kg, ip administered 30 mins before PTZ challenge; format: functional, organism-based; set-up: dose 10 mg/kg
[12] = tested on: Rattus norvegicus; experiment: Anticonvulsant activity in Wistar rat assessed as protection against maximal electroshock-induced convulsions at 10 mg/kg, ip administered 30 mins before MES challenge; format: functional, organism-based; set-up: dose 10 mg/kg
[13] = tested on: Rattus norvegicus; experiment: Proconvulsant activity in maximal electroshock-induced convulsions Wistar rat model assessed as tonic hindlimb extensions at 1 to 10 mg/kg, ip administered 30 mins before MES challenge; format: ADME, organism-based; set-up: dose 1-10 mg/kg, route intraperitoneal; details: in vivo, 0.5 h
[14] = tested on: Rattus norvegicus; experiment: Anticonvulsant activity against PTZ-kindled convulsion Wistar rat model assessed as reduction in convulsions at 1 to 10 mg/kg, ip administered 30 mins before PTZ challenge measured for 10 to 30 mins; format: functional, organism-based

Histamine H4 receptor, sequence (Q9H3N8 whole entry): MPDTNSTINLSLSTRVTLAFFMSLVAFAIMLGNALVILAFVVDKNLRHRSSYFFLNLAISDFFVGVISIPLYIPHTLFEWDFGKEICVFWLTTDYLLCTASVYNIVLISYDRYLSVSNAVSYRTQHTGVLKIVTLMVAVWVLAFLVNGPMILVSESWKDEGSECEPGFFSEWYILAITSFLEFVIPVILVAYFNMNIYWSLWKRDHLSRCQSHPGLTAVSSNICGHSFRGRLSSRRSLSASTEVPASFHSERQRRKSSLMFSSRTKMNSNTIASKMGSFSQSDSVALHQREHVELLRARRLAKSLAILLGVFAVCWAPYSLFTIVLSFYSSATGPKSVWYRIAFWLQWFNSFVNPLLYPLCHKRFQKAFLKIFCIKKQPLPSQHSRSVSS
Histamine H3 receptor, sequence (Q9Y5N1 whole entry): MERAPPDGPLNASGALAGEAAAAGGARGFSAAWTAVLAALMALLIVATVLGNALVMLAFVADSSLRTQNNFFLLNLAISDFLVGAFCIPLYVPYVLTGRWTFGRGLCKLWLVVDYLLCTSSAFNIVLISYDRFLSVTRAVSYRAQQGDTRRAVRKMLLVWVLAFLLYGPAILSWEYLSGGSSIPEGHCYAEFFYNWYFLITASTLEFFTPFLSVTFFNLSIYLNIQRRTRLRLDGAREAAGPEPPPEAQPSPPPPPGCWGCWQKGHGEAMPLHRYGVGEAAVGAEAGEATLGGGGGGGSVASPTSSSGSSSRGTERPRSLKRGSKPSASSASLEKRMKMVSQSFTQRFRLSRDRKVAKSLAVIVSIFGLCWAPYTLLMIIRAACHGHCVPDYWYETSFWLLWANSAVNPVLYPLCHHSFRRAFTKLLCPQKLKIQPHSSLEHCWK
Histamine H1 receptor, sequence (P35367 whole entry): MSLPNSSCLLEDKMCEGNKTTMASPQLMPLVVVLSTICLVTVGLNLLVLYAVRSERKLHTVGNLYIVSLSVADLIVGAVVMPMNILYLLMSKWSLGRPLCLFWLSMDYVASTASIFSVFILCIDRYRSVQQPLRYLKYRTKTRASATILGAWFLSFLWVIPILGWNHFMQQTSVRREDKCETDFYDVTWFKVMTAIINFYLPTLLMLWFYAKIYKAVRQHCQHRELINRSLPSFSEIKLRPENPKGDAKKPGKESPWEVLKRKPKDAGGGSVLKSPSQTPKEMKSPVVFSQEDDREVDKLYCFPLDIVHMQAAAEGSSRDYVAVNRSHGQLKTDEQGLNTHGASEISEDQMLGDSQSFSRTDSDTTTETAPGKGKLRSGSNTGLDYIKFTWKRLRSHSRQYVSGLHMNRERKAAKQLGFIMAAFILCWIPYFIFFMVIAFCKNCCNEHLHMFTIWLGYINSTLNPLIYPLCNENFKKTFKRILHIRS

`Cc1nnc(-c2cccnc2)n1-c1ccc(OCCCN2CCCCC2)cc1` was tested, and the pKi [1] was 2.85, the pKi [2] was 9.62 and the Activity [3] was “inactive”. The pKi [4] was 4.98.
For `S=C(NC1CCCCC1)N1CCC(c2cnc[nH]2)CC1` [THIOPERAMIDE], the pKi [4] was < 5.00.
`O=C1NC(c2ccccc2)(c2ccccc2)C(=O)N1CCCN1CCCCC1` was tested, and the inhibition [5] was “inactive”, the pKi [1] was 3.31 and the inhibition [6] was “Active”. For the same compound, the Activity [7] was “Active”, the Activity [8] was “Active” and the Activity [9] was “Active”. For the same compound, the pKi [2] was 6.25, the Activity [10] was “inactive” and the pKi [4] was 5.21. The Activity [11] was “Active”.
In the case of `C[C@H](NCc1ccc(OCCCN2CCCCC2)cc1)C(N)=O`, the pKi [1] was 3.48, the pKi [2] was 7.37 and the Activity [3] was “inactive”. For the same compound, the pKi [4] was 4.50.
In the case of `Cc1nnc(C)n1-c1ccc(OCCCN2CCCCC2)cc1`, the pKi [1] was 4.69, the pKi [2] was 9.03 and the Activity [3] was “inactive”. For the same compound, the pKi [4] was 4.53.
For `Clc1ccc(CCCOCCCN2CCCCC2)cc1` [PITOLISANT], the pKi [1] was < 5.00 and the Activity [12] was “Active”.
With `O=C1NC(c2ccccc2)(c2ccccc2)C(=O)N1Cc1ccc(OCCCN2CCCCC2)cc1` the pKi [1] was 5.03, the pKi [2] was 7.12 and the Activity [3] was “inactive”. For the same compound, the Activity [13] was “Toxic”, the pKi [4] was 5.65 and the inhibition [14] was “inactive”.
`O=C1NC(=O)C(c2ccccc2)(c2ccccc2)N1` was tested, and the Activity [12] was “Active”.
